Reference: patent US5455356A, “Fungicidal 1-aryl-1-[α-(triazolyl)alkyl]-1-silacycloalkanes and their preparation methods” (priority 1993, dated 1995)

Experiments:
Type in all cases: cell-based
GC = experiment: In vitro mycelial/spore growth on potato-sucrose-agar, percent disease control (GC); conditions: read-out: % controlled, GC; for inhibition of growth at 50 ppm: GC
Protocol: (§1) The compounds of this invention were dissolved respectively in acetone in an amount equal to 10% of the final volume and then in purified water at the concentration of 100 ppm and 50 ppm.
(§2) Each of the solution was mixed with potato-sucrose-agar medium in 6" petri dish and one of the fungi was spotted at the center of the dish. The dish was incubated in growth room for several days. The percent disease control was derived from the radii of spore growth. The screening tests in vitro condition are well-known to those skilled in the art.
(§3) The following fungi were used for the screening.

Pyricalaria oryzae = experiment: In vitro mycelial/spore growth on potato-sucrose-agar, percent disease control (PO); conditions: read-out: % controlled, PO
Protocol: as §1, §2, §3
6) Py. or.; Pyricalaria oryzae

Rhizopus sp. = experiment: In vitro mycelial/spore growth on potato-sucrose-agar, percent disease control (RS, second column); conditions: read-out: % controlled, RS; for inhibition of growth at 50 ppm: Rhizopus sp.; for inhibition of growth at 200 ppm: Rhizopus
Protocol: as §1, §2, §3
9) Rhi. sp.; Rhizopus sp.

Botritis cinerea = experiment: In vitro mycelial/spore growth on potato-sucrose-agar, percent disease control (BC); conditions: read-out: % controlled, BC
Protocol: as §1, §2, §3
10) Bo. ci.; Botritis cinerea

Phytophthora capsisi = experiment: In vitro mycelial/spore growth on potato-sucrose-agar, percent disease control (PC); conditions: read-out: % controlled, PC
Protocol: as §1, §2, §3
2) Phy. ca.; Phytophthora capsisi

Rhizoctonia solani = experiment: In vitro mycelial/spore growth on potato-sucrose-agar, percent disease control (RS, first column); conditions: read-out: % controlled, RS
Protocol: as §1, §2, §3
7) Rhi. so.; Rhizoctonia solani

Botryosphaeri = experiment: In vitro mycelial/spore growth on potato-sucrose-agar, percent disease control (BD); conditions: read-out: % controlled, BD
Protocol: as §1, §2, §3
4) Bo. do (Ma); Botryosphaeri

Fusarium moniliforme = experiment: In vitro mycelial/spore growth on potato-sucrose-agar, percent disease control (FM); conditions: Fusarium verticillioides, Fusarium moniliforme, read-out: % controlled, FM
Protocol: as §1, §2, §3
8) Fu. mo.; Fusarium moniliforme

| SMILES | inhibition of growth at 50 ppm (GC) | inhibition of growth at 200 ppm (GC) | inhibition of growth at 50 ppm (Pyricalaria oryzae) | inhibition of growth at 200 ppm (Pyricalaria oryzae) | inhibition of growth at 50 ppm (Rhizopus sp.) | inhibition of growth at 200 ppm (Rhizopus sp.) | inhibition of growth at 50 ppm (Botritis cinerea) | inhibition of growth at 200 ppm (Botritis cinerea) | inhibition of growth at 50 ppm (Phytophthora capsisi) | inhibition of growth at 200 ppm (Phytophthora capsisi) | inhibition of growth at 50 ppm (Rhizoctonia solani) | inhibition of growth at 200 ppm (Rhizoctonia solani) | inhibition of growth at 50 ppm (Botryosphaeri) | inhibition of growth at 200 ppm (Botryosphaeri) | inhibition of growth at 50 ppm (Fusarium moniliforme) | inhibition of growth at 200 ppm (Fusarium moniliforme) |
| --- | --- | --- | --- | --- | --- | --- | --- | --- | --- | --- | --- | --- | --- | --- | --- | --- |
| COc1ccc([Si]2(C(C)n3cncn3)CCCCC2)cc1 (stereo not drawn) [1-(4-methoxoyphenyl)-1-[α-(1H-1,2,4-triazole-1-yl)ethyl]-1-silacyclohexane] | 100% | 100% | 100% | 100% | 49% | 60% | 64% | 100% | 55% | 85% | 93% | 100% | 92% | 100% | 94% | 98% |
| COc1ccc([Si]2(Cn3cncn3)CCCCC2)cc1 [1-(4-methoxyphenyl)-1-(1H-1,2,4-triazole-1-yl)methyl-1-silacyclohexane] | 100% | 100% | 100% | 100% | 65% | 79% | 69% | 89% | 49% | 93% | 96% | 100% | 85% | 100% | 81% | 92% |
| COc1ccc([Si]2(Cn3cncn3)CCCC2)cc1 [1-(4-methoxyphenyl)-1-(1H-1,2,4-triazole-1-yl)methyl-1-silacyclopentane] | 100% | 100% | 100% | 100% | 64% | 75% | 72% | 77% | 41% | 100% | 74% | 100% | 75% | 79% | 70% | 80% |
| COc1ccc([Si]2(C(C)n3cncn3)CCCC2)cc1 (stereo not drawn) [1-(4-methoxyphenyl)-1-[α-(1H-1,2,4-triazole-1-yl)ethyl]-1-silacyclopentane] | 100% | 100% | 100% | 100% | 59% | 80% | 81% | 95% | 50% | 90% | 100% | 100% | 71% | 96% | 94% | 99% |
| FC(F)(F)c1ccc([Si]2(Cn3cncn3)CCCCC2)cc1 [1-(4-trifluoromethyl)-1-(1H-1,2,4-triazole-1-yl)methyl-1-silacyclohexane] | 100% | 100% | 100% | 100% | 63% | 76% | 93% | 100% | 75% | 99% | 54% | 80% | 100% | 100% | 82% | 98% |
| FC(F)(F)c1ccc([Si]2(Cn3cncn3)CCCC2)cc1 [1-(4-trifluoromethyl)-1-(1H-1,2,4-triazole-1-yl)methyl-1-silacyclopentane] | 100% | 100% | 100% | 100% | 69% | 72% | 96% | 100% | 70% | 79% | 95% | 99% | 96% | 100% | 79% | 100% |
| CC(n1cncn1)[Si]1(c2ccc(C(F)(F)F)cc2)CCCCC1 (stereo not drawn) [1-(4-trifluoromethyl)-1-[α-(1H-1,2,4-triazole-1-yl)ethyl]-1-silacyclohexane] | 100% | 100% | 100% | 100% | 47% | 56% | 66% | 99% | 39% | 78% | 99% | 100% | 100% | 100% | 58% | 99% |
| CC(n1cncn1)[Si]1(c2ccc(C(F)(F)F)cc2)CCCC1 (stereo not drawn) [1-(4-trifluoromethyl)-1-[α-(1H-1,2,4-triazole-1-yl)ethyl]-1-silacyclopentane] | 100% | 100% | 100% | 100% | 56% | 75% | 94% | 100% | 86% | 98% | 92% | 100% | 90% | 100% | 73% | 99% |
